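In this assay, cells in 96-well plates receive the compound at five concentrations for 48 hours. Endpoints are linearly interpolated between the surrounding concentrations. Here, GI50 denotes the concentration required for 50% inhibition of growth. TGI marks complete inhibition of growth.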
How the values were obtained:
Test in all cases: inhibition of tumour cell growth, NCI panel, 48 h
[1] = system: A498 renal
[2] = system: MOLT-4 leukemia
[3] = system: RPMI-8226 leukemia
[4] = system: RXF 393 renal
[5] = system: SK-MEL-2 melanoma
[6] = system: SNB-75 CNS
[7] = system: SW-620 colon
[8] = system: U251 CNS
[9] = system: UO-31 renal
[10] = system: MDA-MB-435

COc1cc(O)c(C(=O)C2Cc3ccccc32)c(OC)c1 (stereo unspecified)
TGI [1]: > 100 µM
TGI [2]: 45.8 µM
TGI [3]: 47.4 µM
TGI [4]: 69.4 µM
TGI [5]: 95 µM
TGI [6]: > 100 µM
TGI [7]: > 100 µM
TGI [8]: > 100 µM
TGI [9]: > 100 µM

N/N=C1/C(=O)N(c2ccc(Cl)cc2)C(=O)C(=O)C1c1nc2ccccc2s1 (stereo unspecified)
TGI [1]: > 100 µM
TGI [2]: > 100 µM
TGI [3]: > 100 µM
TGI [4]: > 100 µM
TGI [5]: > 100 µM
TGI [6]: > 100 µM
TGI [7]: > 100 µM
TGI [8]: > 100 µM
TGI [9]: > 100 µM

NN=C1/C(=C\c2ccccc2)CCC/C1=C/c1ccccc1
TGI [1]: 95.8 µM
TGI [2]: 37.4 µM
TGI [3]: 38 µM
TGI [4]: > 100 µM
TGI [5]: > 100 µM
TGI [6]: > 100 µM
TGI [7]: > 100 µM
TGI [8]: > 100 µM
TGI [9]: 94.2 µM

COC1=CC(=O)C2(C=C1OC)OC[C@H]1Oc3c(ccc4c3C=CC(C)(C)O4)C(=O)[C@H]12 (stereo partly specified)
TGI [1]: > 100 µM
TGI [2]: 85.6 µM
TGI [3]: 49.3 µM
TGI [4]: > 100 µM
TGI [5]: > 100 µM
TGI [6]: > 100 µM
TGI [7]: > 100 µM
TGI [8]: > 100 µM
TGI [9]: > 100 µM

O=C1c2c(c3c4ccccc4n(CC4CO4)c3c3[nH]c4ccccc4c23)C(=O)N1Cc1ccccc1 (stereo unspecified)
TGI [1]: > 100 µM
TGI [2]: > 100 µM
TGI [3]: > 100 µM
TGI [4]: > 100 µM
TGI [5]: > 100 µM
TGI [7]: > 100 µM
TGI [8]: > 100 µM
TGI [9]: > 100 µM

CCN(CC)c1ccc(N=Nc2ccc(-c3nc4cccnc4s3)cc2)cc1
TGI [1]: > 100 µM
TGI [2]: > 100 µM
TGI [3]: > 100 µM
TGI [5]: > 100 µM
TGI [6]: 98.9 µM
TGI [7]: > 100 µM
TGI [8]: > 100 µM
TGI [9]: > 100 µM

CSCSCC(CO)NC(=O)/C=C/c1c(C)[nH]c(=O)[nH]c1=O (stereo unspecified)
TGI [1]: > 100 µM
TGI [2]: > 100 µM
TGI [3]: > 100 µM
TGI [4]: > 100 µM
TGI [5]: > 100 µM
TGI [6]: > 100 µM
TGI [7]: > 100 µM
TGI [8]: > 100 µM
TGI [9]: > 100 µM

CCCCCCNC(=O)CCN(C(=O)O)S(=O)(=O)c1ccc(NC(=O)c2ccccc2)cc1
TGI [1]: > 100 µM
TGI [2]: > 60.1 µM
TGI [3]: 54.4 µM
TGI [4]: > 100 µM
TGI [5]: > 100 µM
TGI [6]: > 100 µM
TGI [7]: 30.6 µM
TGI [8]: 42.3 µM
TGI [9]: > 100 µM

NP1(Oc2ccc(F)cc2)=NP(N)(Oc2ccc(F)cc2)=NP(Oc2ccc(F)cc2)(Oc2ccc(F)cc2)=N1 (stereo unspecified)
TGI [1]: 8.71 µM
TGI [10]: 19.3 µM
TGI [2]: 10.5 µM
TGI [3]: 18.3 µM
TGI [6]: 14.5 µM
TGI [7]: 24.8 µM
TGI [8]: 15.9 µM
TGI [9]: 14.2 µM

Cc1ccc2nc(CN(CCN(Cc3nc4ccc(C)cc4[nH]3)Cc3nc4ccc(C)cc4[nH]3)Cc3nc4ccc(C)cc4[nH]3)[nH]c2c1
GI50 [1]: 1.71 µM
TGI [1]: 3.14 µM
GI50 [10]: 1.62 µM
TGI [10]: 2.98 µM
GI50 [3]: 1.3 µM
TGI [3]: 2.95 µM
GI50 [5]: 2.16 µM
TGI [5]: 3.85 µM
GI50 [6]: 1.32 µM
TGI [6]: 2.6 µM
GI50 [8]: 1.61 µM
TGI [8]: 2.97 µM
GI50 [9]: 1.71 µM
TGI [9]: 3.14 µM

COc1ccc2c(c1O)[C@@]13CCCC=C1[C@@H](C2)N(C)CC3
TGI [10]: > 100 µM
TGI [2]: > 100 µM
TGI [3]: > 100 µM
TGI [4]: > 100 µM
TGI [5]: > 100 µM
TGI [6]: > 100 µM
TGI [7]: > 100 µM
TGI [8]: > 100 µM
TGI [9]: > 100 µM

COc1cc(C(=O)/C=C/c2c[nH]c3ccccc23)cc(OC)c1OC
GI50 [1]: < 0.0119 µM
TGI [1]: 0.0414 µM
GI50 [2]: 0.0473 µM
TGI [2]: 15.6 µM
GI50 [3]: 0.0319 µM
TGI [3]: 2.82 µM
GI50 [4]: 0.0238 µM
TGI [4]: 34.7 µM
GI50 [5]: 0.0392 µM
TGI [5]: 19.2 µM
GI50 [6]: 0.0264 µM
TGI [6]: 37.2 µM
GI50 [7]: < 0.0123 µM
TGI [7]: > 100 µM
GI50 [8]: < 0.0195 µM
TGI [8]: 16.1 µM
GI50 [9]: 0.0396 µM
TGI [9]: 11.4 µM

O=C(CC1(O)C(=O)Nc2ccccc21)c1cccc(O)c1 (stereo unspecified)
TGI [1]: > 100 µM
TGI [2]: > 100 µM
TGI [3]: > 100 µM
TGI [4]: > 100 µM
TGI [5]: > 100 µM
TGI [6]: > 100 µM
TGI [7]: > 100 µM
TGI [9]: > 100 µM

COc1cccc(NC(=O)/C(CS(=O)(=O)CCC(C(C)=O)C(C)=O)=N\NC(C)(C)C)c1
TGI [1]: > 100 µM
TGI [2]: > 100 µM
TGI [3]: > 100 µM
TGI [4]: > 100 µM
TGI [5]: > 100 µM
TGI [6]: > 100 µM
TGI [7]: > 100 µM
TGI [8]: > 100 µM
TGI [9]: > 100 µM

CC(=O)O[C@H]1CSC[C@@H](OC(C)=O)C1[N+](=O)[O-] (stereo partly specified)
TGI [1]: > 100 µM
TGI [2]: 78.7 µM
TGI [3]: 59.5 µM
TGI [4]: 36.1 µM
TGI [5]: 66.9 µM
TGI [6]: > 100 µM
TGI [7]: 74.3 µM
TGI [8]: > 100 µM

Cc1ccccc1NC(=O)C(=O)C(C(=O)c1ccccc1F)C1OC(=O)c2ccccc21 (stereo unspecified)
TGI [1]: > 100 µM
TGI [2]: 52.4 µM
TGI [3]: 48.3 µM
TGI [4]: 24.6 µM
TGI [5]: 65.4 µM
TGI [6]: 31.8 µM
TGI [7]: > 100 µM
TGI [8]: 60.6 µM
TGI [9]: 49.4 µM

COC(=O)CC(=O)OC1C[C@@H]2CCC3C(C)(C)CCC[C@]3(C)C23CC[C@@]1(C)C3 (stereo partly specified)
TGI [2]: > 100 µM
TGI [3]: > 100 µM
TGI [4]: 37.2 µM
TGI [6]: 51.2 µM
TGI [7]: 32.1 µM
TGI [8]: 31.2 µM
TGI [9]: 39.8 µM

CC(=O)OC1(C(C)=O)CC2(c3ccccc3)OC1(c1ccccc1)c1ccccc12 (stereo unspecified)
TGI [2]: 40.1 µM
TGI [3]: 96.8 µM
TGI [4]: 60.2 µM
TGI [5]: 83.2 µM
TGI [6]: > 100 µM
TGI [7]: > 100 µM
TGI [8]: > 100 µM
TGI [9]: 80.1 µM

C=C(C)[C@@H]1CC[C@]2(C(=O)O)CC[C@]3(C)[C@H](CC[C@@H]4[C@@]5(C)CCC(N)C(C)(C)[C@@H]5CC[C@]43C)[C@@H]12 (stereo partly specified)
GI50 [10]: 1.75 µM
TGI [10]: 3.32 µM
GI50 [3]: 2.04 µM
TGI [3]: 5.21 µM
GI50 [4]: 1.77 µM
TGI [4]: 3.31 µM
GI50 [5]: 1.95 µM
TGI [5]: 3.69 µM
GI50 [6]: 1.39 µM
TGI [6]: 2.72 µM
GI50 [8]: 1.95 µM
TGI [8]: 3.6 µM

COc1ccccc1NC(=O)c1sc2ncn(CCOc3ccccc3)c(=O)c2c1C
GI50 [3]: 9.2 µM
TGI [3]: > 50 µM
GI50 [5]: 3.37 µM
TGI [5]: > 50 µM
GI50 [7]: 2.33 µM
TGI [7]: > 50 µM
GI50 [8]: 3.5 µM
TGI [8]: > 50 µM
GI50 [9]: 12.5 µM
TGI [9]: > 50 µM

CN(C(=O)C12C3C4C1C1C2C3C41C#N)C(C)(C)C (stereo unspecified)
TGI [1]: > 100 µM
TGI [2]: > 100 µM
TGI [3]: > 100 µM
TGI [5]: > 100 µM
TGI [6]: > 100 µM
TGI [7]: > 100 µM
TGI [8]: > 100 µM
TGI [9]: > 100 µM

O=C1N(c2ccc(Cl)cc2)C(=O)C2(SC=NN2Cc2ccccc2)N1c1ccc(Cl)cc1 (stereo unspecified)
TGI [1]: > 100 µM
TGI [2]: > 100 µM
TGI [3]: > 100 µM
TGI [4]: > 100 µM
TGI [6]: > 100 µM
TGI [7]: > 100 µM
TGI [8]: > 100 µM
TGI [9]: > 100 µM
